# Measured values from ChEMBL document CHEMBL1201862, “PubChem BioAssay data set” (2004).
# The source made the active and inactive calls.
# What was measured:
# [1] = molecular target: Intestinal-type alkaline phosphatase (Mus musculus, UniProt P24822); test: PubChem AID 488875; format: functional
# [2] = molecular target: T1, Intestinal-type alkaline phosphatase (Homo sapiens, UniProt P09923); test: human intestinal alkaline phosphatase activators, dose response, biochemical, luminescence, uHTS hits (AID 463120); format: functional
# [3] = molecular target: T1, Intestinal-type alkaline phosphatase; test: human IAP activators, dose response, biochemical, luminescent, uHTS hits, set 2 (AID 488817); format: functional;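 note: potency of activators that raise enzyme activity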
# [4] = molecular target: T2, Alkaline phosphatase, tissue-nonspecific isozyme (Homo sapiens, UniProt P05186); test: TNAP enzyme activators, dose response, selectivity assay for human IAP activator project, biochemical, TNAP isozyme, human IAP uHTS hits (AID 488886); format: functional;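 note: potency of compounds raising TNAP activity as a selectivity check on IAP activators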
# T2 sequence (P05186 whole entry): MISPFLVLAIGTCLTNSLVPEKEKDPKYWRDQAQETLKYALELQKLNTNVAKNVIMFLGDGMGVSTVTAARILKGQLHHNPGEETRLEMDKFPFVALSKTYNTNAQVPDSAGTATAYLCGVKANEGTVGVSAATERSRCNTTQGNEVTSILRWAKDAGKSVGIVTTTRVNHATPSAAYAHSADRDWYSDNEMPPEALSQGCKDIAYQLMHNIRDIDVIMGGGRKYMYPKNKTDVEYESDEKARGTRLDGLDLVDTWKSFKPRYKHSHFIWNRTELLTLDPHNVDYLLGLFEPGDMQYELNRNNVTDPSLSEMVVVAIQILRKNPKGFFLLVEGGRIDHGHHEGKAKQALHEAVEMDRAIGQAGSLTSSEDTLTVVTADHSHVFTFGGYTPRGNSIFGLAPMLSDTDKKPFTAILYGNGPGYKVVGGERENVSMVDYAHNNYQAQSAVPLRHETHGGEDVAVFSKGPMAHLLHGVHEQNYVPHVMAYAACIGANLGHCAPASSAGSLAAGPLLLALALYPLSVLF
# [5] = molecular target: G-protein coupled receptor 55 (Homo sapiens, UniProt Q9Y2T6); test: GPR55 antagonists, SAR follow-up, counter-screen for GPR35 antagonist project, imaging, image-based (AID 2397); format: functional
# Cytochrome P450 3A4 = Cytochrome P450 3A4 (Homo sapiens, UniProt P08684);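 note: CYP3A4 tested as one member of a cytochrome P450 panel screen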
# [6] = molecular target: T3, RNA-binding protein pos-1 (Caenorhabditis elegans, UniProt G5EF15); test: inhibitors of POS-1/mex-3 RNA binding, dose response, biochemical, fluorescence polarization (AID 1964);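 note: purified POS-1 fused to maltose binding protein made in E. coli; potency of compounds blocking POS-1 binding to fluorescent RNA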
# T3 sequence (G5EF15 whole entry): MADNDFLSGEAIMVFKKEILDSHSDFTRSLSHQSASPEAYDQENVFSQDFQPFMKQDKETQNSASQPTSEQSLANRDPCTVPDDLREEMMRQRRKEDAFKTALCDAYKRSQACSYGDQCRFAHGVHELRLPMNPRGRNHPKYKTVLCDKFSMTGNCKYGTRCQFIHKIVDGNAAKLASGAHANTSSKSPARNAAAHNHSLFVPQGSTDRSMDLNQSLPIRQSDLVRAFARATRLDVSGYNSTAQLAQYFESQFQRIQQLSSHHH
# [7] = molecular target: T4, Zinc finger protein mex-5 (Caenorhabditis elegans, UniProt Q9XUB2); test: MEX-5/TCR-2 RNA interaction inhibitors, dose response, biochemical, C. elegans, fluorescence polarization (AID 1960)
# T4 sequence (Q9XUB2 whole entry): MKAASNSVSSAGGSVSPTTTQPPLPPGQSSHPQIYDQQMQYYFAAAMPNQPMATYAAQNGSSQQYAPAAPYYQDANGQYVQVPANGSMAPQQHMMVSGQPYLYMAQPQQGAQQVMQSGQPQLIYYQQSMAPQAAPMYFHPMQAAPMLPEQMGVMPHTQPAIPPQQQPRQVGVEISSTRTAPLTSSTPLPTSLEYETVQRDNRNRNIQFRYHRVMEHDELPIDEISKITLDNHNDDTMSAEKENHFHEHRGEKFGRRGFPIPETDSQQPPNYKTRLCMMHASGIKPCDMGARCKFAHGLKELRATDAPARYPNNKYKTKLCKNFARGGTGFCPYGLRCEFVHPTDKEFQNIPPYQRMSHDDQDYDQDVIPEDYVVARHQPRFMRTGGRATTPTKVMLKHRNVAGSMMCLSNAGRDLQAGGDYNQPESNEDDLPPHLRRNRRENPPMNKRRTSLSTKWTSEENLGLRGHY
# [8] = molecular target: UDP-galactopyranose mutase (Mycobacterium tuberculosis, UniProt P9WIQ1); test: Inhibitors of Mycobacterium tuberculosis UDP-galactopyranose mutase (UGM) enzyme Measured in Biochemical System Using Plate Reader - 2105-02_Inhibitor_Dose_CherryPick_Activity. [Related pubchem assays (depositor defined):AID504439]
# [9] = molecular target: Protein phosphatase methylesterase 1 (Homo sapiens, UniProt Q9Y570); test: PME-1 inhibitors by competitive ABPP, late-stage follow-up, gel-based ABPP, IC50, set 1 (AID 463130); format: functional
# [10] = molecular target: DNA damage-inducible transcript 3 protein (Mus musculus, UniProt P35639); format: functional, Cricetulus griseus
# X-box-binding protein 1 = molecular target: T5, X-box-binding protein 1 (Homo sapiens, UniProt P17861); format: functional, Cricetulus griseus;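 note: confirmatory dose-response counter-screen serving a CHOP assay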
# T5 sequence (P17861 whole entry): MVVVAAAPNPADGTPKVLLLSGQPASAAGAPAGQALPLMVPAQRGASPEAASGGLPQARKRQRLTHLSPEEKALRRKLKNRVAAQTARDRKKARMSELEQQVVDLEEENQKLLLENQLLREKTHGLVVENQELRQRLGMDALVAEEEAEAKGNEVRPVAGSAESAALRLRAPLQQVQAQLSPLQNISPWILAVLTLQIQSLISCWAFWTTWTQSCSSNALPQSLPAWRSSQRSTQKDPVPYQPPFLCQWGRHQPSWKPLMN
# [11] = molecular target: T6, Tyrosine-protein phosphatase non-receptor type 7 (Homo sapiens, UniProt P35236); format: functional
# T6 sequence (P35236 whole entry): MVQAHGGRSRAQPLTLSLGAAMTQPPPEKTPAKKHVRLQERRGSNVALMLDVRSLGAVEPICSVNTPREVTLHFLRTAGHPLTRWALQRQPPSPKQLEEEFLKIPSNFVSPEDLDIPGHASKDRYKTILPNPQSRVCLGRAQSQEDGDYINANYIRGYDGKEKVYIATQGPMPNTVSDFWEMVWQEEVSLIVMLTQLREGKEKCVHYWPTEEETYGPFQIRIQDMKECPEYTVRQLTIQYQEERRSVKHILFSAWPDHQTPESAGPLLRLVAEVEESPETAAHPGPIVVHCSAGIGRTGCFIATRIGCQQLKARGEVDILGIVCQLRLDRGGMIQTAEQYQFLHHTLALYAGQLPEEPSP
# [12] = molecular target: Glyceraldehyde-3-phosphate dehydrogenase (Homo sapiens, UniProt P04406)
# [13] = molecular target: Heat shock cognate 71 kDa protein (Homo sapiens, UniProt P11142); test: In Vitro Hsc70 Dose Response Fluorescence Polarization Assay. [Related pubchem assays: 1072 ]
# [14] = molecular target: Heat shock 70 kDa protein 1A (Homo sapiens, UniProt P0DMV8); test: Hsp70 inhibitors, SAR follow-up, biochemical, fluorescence polarization (AID 1072)
# [15] = molecular target: T7, Dual specificity protein phosphatase 6 (Rattus norvegicus, UniProt Q64346)
# [16] = molecular target: T7, Dual specificity protein phosphatase 6; format: functional
# T7 sequence (Q64346 whole entry): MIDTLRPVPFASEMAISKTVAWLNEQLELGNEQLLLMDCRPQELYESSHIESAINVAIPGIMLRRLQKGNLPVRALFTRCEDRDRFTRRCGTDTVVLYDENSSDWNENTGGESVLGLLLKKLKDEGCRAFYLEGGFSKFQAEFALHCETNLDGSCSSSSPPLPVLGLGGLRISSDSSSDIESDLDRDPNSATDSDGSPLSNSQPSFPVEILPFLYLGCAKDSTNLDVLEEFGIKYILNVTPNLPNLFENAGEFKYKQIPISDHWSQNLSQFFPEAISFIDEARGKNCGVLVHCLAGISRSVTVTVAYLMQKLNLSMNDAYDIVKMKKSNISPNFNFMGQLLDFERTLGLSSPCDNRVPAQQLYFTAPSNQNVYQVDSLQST
# T1 sequence (P09923 whole entry): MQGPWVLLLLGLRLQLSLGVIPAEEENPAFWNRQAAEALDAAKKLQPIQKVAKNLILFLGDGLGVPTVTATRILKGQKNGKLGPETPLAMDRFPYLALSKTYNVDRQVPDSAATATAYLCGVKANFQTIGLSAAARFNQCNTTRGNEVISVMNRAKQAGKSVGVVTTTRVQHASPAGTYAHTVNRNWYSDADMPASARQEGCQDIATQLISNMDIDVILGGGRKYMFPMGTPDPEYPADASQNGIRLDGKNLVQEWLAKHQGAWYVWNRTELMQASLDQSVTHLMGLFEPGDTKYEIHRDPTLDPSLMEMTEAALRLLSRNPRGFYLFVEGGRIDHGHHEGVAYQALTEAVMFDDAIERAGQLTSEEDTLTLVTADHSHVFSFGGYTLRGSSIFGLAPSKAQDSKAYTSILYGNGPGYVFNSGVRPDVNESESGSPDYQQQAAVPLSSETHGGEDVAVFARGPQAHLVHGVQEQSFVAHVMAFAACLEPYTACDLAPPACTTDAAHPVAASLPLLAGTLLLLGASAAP
# Sequence of DNA damage-inducible transcript 3 protein (P35639 whole entry): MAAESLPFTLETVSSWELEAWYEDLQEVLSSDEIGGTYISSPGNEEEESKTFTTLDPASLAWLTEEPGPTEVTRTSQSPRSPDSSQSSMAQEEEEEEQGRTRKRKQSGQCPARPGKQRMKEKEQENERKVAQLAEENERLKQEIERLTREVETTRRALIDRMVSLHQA
# Sequence of G-protein coupled receptor 55 (Q9Y2T6 whole entry): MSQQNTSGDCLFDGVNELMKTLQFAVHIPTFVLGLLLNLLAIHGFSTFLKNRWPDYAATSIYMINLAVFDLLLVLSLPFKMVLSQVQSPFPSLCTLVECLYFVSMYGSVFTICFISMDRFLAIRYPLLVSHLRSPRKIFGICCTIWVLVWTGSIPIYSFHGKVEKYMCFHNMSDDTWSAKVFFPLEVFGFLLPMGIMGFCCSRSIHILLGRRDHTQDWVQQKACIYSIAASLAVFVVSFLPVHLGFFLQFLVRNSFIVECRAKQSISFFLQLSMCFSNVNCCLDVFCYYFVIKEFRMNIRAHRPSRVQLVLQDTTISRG
# Sequence of UDP-galactopyranose mutase (P9WIQ1 whole entry): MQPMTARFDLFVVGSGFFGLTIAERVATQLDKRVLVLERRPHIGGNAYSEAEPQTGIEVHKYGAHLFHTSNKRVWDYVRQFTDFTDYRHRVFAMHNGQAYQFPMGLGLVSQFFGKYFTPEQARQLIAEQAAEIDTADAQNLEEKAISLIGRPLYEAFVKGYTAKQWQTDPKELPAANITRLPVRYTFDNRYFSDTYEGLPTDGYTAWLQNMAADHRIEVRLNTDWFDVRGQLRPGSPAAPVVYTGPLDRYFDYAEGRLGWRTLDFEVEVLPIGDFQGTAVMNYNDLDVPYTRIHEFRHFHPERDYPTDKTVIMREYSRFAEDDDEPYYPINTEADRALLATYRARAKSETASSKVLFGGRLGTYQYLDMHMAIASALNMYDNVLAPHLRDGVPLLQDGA
# Sequence of Glyceraldehyde-3-phosphate dehydrogenase (P04406 whole entry): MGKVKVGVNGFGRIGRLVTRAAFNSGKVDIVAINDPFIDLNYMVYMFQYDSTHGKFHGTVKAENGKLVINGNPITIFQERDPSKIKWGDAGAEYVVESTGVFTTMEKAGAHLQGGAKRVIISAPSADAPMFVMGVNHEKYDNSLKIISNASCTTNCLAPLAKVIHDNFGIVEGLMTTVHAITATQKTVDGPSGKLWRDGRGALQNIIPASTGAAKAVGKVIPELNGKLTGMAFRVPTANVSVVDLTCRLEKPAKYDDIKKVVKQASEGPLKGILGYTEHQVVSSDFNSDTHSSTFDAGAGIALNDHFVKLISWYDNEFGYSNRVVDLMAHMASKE
# Sequence of Intestinal-type alkaline phosphatase (Mus musculus, UniProt P24822) (P24822 whole entry): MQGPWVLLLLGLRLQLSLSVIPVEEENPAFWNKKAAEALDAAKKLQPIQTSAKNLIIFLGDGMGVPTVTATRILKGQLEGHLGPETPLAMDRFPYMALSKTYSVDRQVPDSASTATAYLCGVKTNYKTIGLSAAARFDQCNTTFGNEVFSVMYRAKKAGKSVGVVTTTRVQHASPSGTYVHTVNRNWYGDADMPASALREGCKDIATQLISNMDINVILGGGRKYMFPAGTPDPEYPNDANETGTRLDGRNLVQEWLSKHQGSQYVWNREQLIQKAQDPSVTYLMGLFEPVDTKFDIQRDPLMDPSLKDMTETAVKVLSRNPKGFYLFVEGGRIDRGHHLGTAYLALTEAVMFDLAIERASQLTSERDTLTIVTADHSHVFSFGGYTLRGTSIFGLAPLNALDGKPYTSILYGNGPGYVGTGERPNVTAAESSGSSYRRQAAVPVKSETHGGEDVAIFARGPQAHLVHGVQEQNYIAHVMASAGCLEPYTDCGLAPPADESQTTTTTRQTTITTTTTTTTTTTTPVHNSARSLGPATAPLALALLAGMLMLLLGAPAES
# Sequence of Protein phosphatase methylesterase 1 (Q9Y570 whole entry): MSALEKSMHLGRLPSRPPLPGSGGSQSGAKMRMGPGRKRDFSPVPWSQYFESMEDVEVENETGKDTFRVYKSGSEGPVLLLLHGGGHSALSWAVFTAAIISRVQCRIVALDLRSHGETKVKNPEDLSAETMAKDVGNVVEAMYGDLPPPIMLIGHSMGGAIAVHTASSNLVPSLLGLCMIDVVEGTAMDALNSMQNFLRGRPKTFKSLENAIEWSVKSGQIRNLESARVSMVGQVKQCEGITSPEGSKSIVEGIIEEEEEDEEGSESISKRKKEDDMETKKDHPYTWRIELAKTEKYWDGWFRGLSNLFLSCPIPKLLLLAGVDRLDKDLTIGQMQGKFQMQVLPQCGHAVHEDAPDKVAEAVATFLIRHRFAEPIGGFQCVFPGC
# Sequence of Heat shock 70 kDa protein 1A (P0DMV8 whole entry): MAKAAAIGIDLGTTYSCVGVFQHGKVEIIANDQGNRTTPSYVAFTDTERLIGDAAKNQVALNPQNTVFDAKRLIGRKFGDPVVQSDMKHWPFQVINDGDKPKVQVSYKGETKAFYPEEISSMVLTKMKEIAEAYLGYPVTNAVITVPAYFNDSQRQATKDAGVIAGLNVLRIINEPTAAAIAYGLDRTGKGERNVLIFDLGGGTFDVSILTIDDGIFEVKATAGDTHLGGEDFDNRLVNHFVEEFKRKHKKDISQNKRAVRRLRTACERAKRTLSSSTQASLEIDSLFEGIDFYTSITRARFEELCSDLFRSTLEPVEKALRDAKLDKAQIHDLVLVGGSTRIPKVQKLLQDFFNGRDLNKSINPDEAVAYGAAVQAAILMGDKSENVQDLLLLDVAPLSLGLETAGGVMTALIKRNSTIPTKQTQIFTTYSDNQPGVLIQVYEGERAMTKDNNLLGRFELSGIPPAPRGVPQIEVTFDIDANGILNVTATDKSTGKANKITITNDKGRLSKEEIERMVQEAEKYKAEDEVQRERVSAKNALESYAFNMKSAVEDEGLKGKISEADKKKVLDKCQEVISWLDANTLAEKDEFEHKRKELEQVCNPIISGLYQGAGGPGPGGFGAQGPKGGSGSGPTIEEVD
# Sequence of Heat shock cognate 71 kDa protein (P11142 whole entry): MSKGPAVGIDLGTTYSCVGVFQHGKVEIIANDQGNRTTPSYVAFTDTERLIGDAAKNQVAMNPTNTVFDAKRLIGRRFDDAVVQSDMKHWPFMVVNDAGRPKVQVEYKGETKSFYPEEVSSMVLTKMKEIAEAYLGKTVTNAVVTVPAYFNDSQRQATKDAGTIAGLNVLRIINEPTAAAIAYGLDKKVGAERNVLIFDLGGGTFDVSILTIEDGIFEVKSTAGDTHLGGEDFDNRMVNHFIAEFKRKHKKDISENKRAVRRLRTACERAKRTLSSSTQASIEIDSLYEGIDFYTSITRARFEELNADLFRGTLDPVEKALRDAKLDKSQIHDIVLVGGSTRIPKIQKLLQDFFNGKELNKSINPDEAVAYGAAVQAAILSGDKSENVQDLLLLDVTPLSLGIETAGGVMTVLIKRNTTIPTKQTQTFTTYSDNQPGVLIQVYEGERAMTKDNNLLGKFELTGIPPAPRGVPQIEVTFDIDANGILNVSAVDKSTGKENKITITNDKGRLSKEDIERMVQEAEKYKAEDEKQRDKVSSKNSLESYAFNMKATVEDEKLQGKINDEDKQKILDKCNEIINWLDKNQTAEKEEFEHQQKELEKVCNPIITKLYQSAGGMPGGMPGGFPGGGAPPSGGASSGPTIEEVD
# Sequence of Cytochrome P450 3A4 (P08684 whole entry, the tested form may be a part): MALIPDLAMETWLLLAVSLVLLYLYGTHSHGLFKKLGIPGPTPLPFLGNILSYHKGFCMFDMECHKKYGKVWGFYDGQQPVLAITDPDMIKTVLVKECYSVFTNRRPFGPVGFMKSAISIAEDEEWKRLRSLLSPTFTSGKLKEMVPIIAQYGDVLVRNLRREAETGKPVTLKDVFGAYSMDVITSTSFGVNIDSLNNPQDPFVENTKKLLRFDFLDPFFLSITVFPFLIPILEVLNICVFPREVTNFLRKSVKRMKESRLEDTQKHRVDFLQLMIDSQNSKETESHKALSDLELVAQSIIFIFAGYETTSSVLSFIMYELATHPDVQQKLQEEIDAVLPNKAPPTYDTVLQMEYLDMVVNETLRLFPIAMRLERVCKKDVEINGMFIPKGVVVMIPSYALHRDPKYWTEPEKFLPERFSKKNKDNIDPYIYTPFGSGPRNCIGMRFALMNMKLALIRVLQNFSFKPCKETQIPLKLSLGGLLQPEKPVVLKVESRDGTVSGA
compound,measurement,setting,value
CCOc1cccc(-c2nc(C(N)=O)c3nc(O)n(-c4cccc(Cl)c4)c3n2)c1O,EC50,[1],> 100 µM (inactive)
same,EC50,[2],4.9 µM (active)
same,EC50,[3],3.66 µM (active)
same,EC50,[4],2.41 µM (active)
COc1ccc(-c2nnc(-c3cccnc3)o2)cc1,IC50,[5],> 32 µM (inactive)
same,AC50,Cytochrome P450 3A4,1.58 µM (inconclusive)
NC(=O)Cn1cc(C=C2C(=O)NC(=O)NC2=O)c2ccccc21,EC50,[6],> 300 µM (inconclusive)
same,EC50,[7],> 300 µM (inconclusive)
same,AC50,[8],82.3 µM (active)
COC(=O)N1C(=O)[C@@](CC(C)C)(c2ccccc2)N1C(=O)OC,IC50,[9],0.227 µM (active)
C=CCO/C(O)=C1\C(C)=NC(SCC(=O)Nc2ccccc2)=C(C#N)C1c1ccco1 (stereo not drawn),Absolute IC50 (CHOP),[10],10 µM
same,Absolute IC50 (XBP1),X-box-binding protein 1,10 µM
Cc1ccc(C)c2c1NC(C(=O)O)C1CC=CC21 (stereo not drawn),IC50,[11],> 100 µM (not active)
same,IC50,[12],> 100 µM (not active)
same,IC50,[13],> 100 µM (not active)
same,IC50,[14],> 100 µM (not active)
same,IC50,[15],> 100 µM (inactive)
same,IC50,[16],> 100 µM (inactive)
